According to patent publication US5716627A, “Skin care compositions containing fatty acid amides, azoles, and retinol or retinyl ester” (Elizabeth Arden Co., Division of Conopco, Inc., priority 1996, dated 1998):
Entries after “also recorded” stand apart in the source; their conditions may differ. Read-outs that look alike come from different tables or passages of the source.

Experiments:
Human keratinocytes = test: 3H-thymidine incorporation by cultured keratinocytes (keratinocyte proliferation); type: cell-based; conditions: for activation at 0.0025 µM: 2.5×10^-9 M RA
Experimental: Human keratinocytes, isolated from neonatal foreskin by trypsin treatment were grown in Dulbecco Modification Eagle (DME) Hams F12 (1:1) medium/10% fetal calf serum in the presence of irradiated 3T3 mouse fibroblasts for establishing dividing keratinocyte colonies. Cells were grown under the above condition until their second passage and kept frozen for future use. […] On day 7, when the cells were 80-90% confluent, they were trypsinized and plated in the serum-free medium for the various experiments.
The incorporation of ^3 H-thymidine by cultured keratinocytes was used as an assay of keratinocyte proliferation. Thymidine is one of four deoxynucleosides which are the monomeric units of DNA, the universal library of genetic information in the animal kingdom. Prior to cell division of a somatic cell such as a keratinocyte, the complete genome of the cell undergoing cell division is replicated. This involves large scale DNA synthesis by the cell and enables both daughter cells to receive identical copies of the genetic material. When ^3 H-thymidine is included in the culture media of keratinocytes which are synthesizing DNA in preparation for cell division then the labelled nucleoside is incorporated into the newly synthesized DNA. The extent of incorporation of ^3 H-thymidine into a population of cells is proportional to the rate of DNA synthesis by this population of cells and therefore an indication of their cellular proliferation.
Keratinocytes (that were cultured as described above) were plated in 24 well plates at a density of 40,000 cells per well in 1 ml media. After incubation for four days or until the cells were 60-70% confluent, the media was changed. Test compounds were added (in triplicate) to the wells 24 hours after the media change, and four hours later 1 μCi ^3 H-Thymidine in 50 μl media was added per well. Cells were incubated for a further 24 hours. Media was removed from the cells, 10% ice cold trichloroacetic acid (TCA) added and plates were incubated on ice for 30 minutes. Cells were washed five times with 5% TCA and allowed to dissolve in 500 μl 0.1M NaOH for at least one hour (usually overnight). The preparations were neutralized with 0.1M HCl; 50 μl of the cell preparation was used to determine total protein content. Disintegrations per minute (DPM) from ^3 H labelling of DNA was determined by liquid scintillation counting of 900 μl of the cell preparation. Thymidine incorporation results were expressed as DPM/μg protein.

TGase I = test: Transglutaminase (TGase I) ELISA in cultured keratinocytes, normalized to DNA content (keratinocyte differentiation); type: cell-based, human; conditions: for Mean TGase/DNA X 10^-4 ± S.D.: n = 3; for mean TGase/DNA × 10^4 ± s.d: Table 3B
Experimental: Human keratinocytes, isolated from neonatal foreskin by trypsin treatment were grown in Dulbecco Modification Eagle (DME) Hams F12 (1:1) medium/10% fetal calf serum in the presence of irradiated 3T3 mouse fibroblasts for establishing dividing keratinocyte colonies. Cells were grown under the above condition until their second passage and kept frozen for future use. Frozen second passage keratinocytes were thawed and plated into the above medium and grown for five days before they were switched to a serum-free MCDB 153-based medium keratinocyte growth medium (KGM) from Clonetics Corporation, San Diego, Calif., containing 0.15 mM Ca, or keratinocyte serum-free media (KSFM) from GIBCO containing 0.09 mM Ca). On day 7, when the cells were 80-90% confluent, they were trypsinized and plated in the serum-free medium for the various experiments.
During the process of terminal differentiation in the epidermis, a 15 nm thick layer of protein, known as the cornified envelope (CE) is formed on the inner surface of the cell periphery. The CE is composed of numerous distinct proteins which have been cross-linked together by the formation of N^ε -(γ-glutamyl) lysine isodipeptide bonds catalyzed by the action of at least two different transglutaminases (TGases) expressed in the epidermis. TGase I is expressed in abundance in the differentiated layers of the epidermis, especially the granular layer, but is absent in the undifferentiated basal epidermis. Thus TGase I is a useful marker of epidermal keratinocyte differentiation with high TGase I levels indicating a more differentiated state. An ELISA based TGase I assay, using a TGase I antibody, was used to assess the state of differentiation of the cultured keratinocytes in the examples that follow.
Keratinocytes (cultured as described above) were plated in 96 well plates at a density of 3,000 cells per well in 200 μl media. After incubation for four days the media was changed to media containing test compounds (six replicates per test). The cells were cultured for a further 72 hours after which time the media was aspirated and the plates stored at -70° C. Plates were removed from the freezer, and the cells washed with PBS. 100 μl sterile water was added and the cells were freeze fractured by freezing at -70° C. then thawing. The cells were incubated for one hour at room temperature (R/T) with PBS/3% BSA (wash buffer, bovine serum albumin), then rinsed with a fresh aliquot of wash buffer. Cells were incubated with 50 μl of primary antibodies monoclonal anti-human transglutaminase (IgG) obtained from Amersham (mouse) diluted 1:300 in wash buffer for one hour, 37° C. then rinsed two times with wash buffer. Cells were then incubated with 50 μl of secondary antibody (Feb fragment, peroxidase conjugated anti-mouse IgG obtained from Amersham) diluted 1:200 in wash buffer for one hour at 37° C., then rinsed two times with wash buffer. Cells were incubated with substrate solution (4 mg o-phenylene diamine and 3.3 μl 30% H2 O2 in 10 ml 0.1M citrate buffer pH 5.0) for five minutes, R/T, in darkness (under aluminum foil). The reaction was stopped by the addition of 50 μl 4N H2 SO4. The absorbance of samples was read at 492 nm in the plate reader. Out of the six replicates, four were treated with both antibodies, two were treated only with the secondary antibody (i.e., to determine background binding of enzyme conjugated Ab). TGase levels were determined by subtracting background from the readings from each treatment and determining mean ±s.d. for the replicates exposed to both Ab.
The level of TGase-1 detected after treatment of the cells could be influenced by cell number, i.e., the greater the number of cells the greater the level of TGase-1 detected. The level of TGase-1 was normalized to DNA content of the cells in the same well thus eliminating variation due to differences in cell number. […]

[1] = Examples 1-4, overall conclusion

SMILES: CC1=C(/C=C/C(C)=C/C=C/C(C)=C/C(=O)O)C(C)(C)CCC1 [RA, retinoic acid]
- effect on keratinocyte proliferation (in words) (Human keratinocytes; Example 1, 2.5×10^-7 M, 2.5×10^-8 and 2.5×10^-9 M, vs ethanol control and retinol): significantly increased keratinocyte proliferation over both the ethanol control and each of the 2.5×10^-7 M, 2.5×10^-8 M and 2.5×10^-9 M retinol treatments; also recorded: dose dependant manner
- effect on keratinocyte proliferation (in words) (Human keratinocytes; [1]): increased keratinocyte proliferation
- activity at 0.25 µM (Human keratinocytes; Homo sapiens, Keratinocyte, 24 h, Table 1A, 2.5 × 10^-7 M, 24 hours, read-out: Thymidine incorporation (% control)): 118%
- activity at 0.025 µM (Human keratinocytes; Homo sapiens, Keratinocyte, 24 h, Table 1A, 2.5 × 10^-8 M, 24 hours, read-out: Thymidine incorporation (% control)): 128%
- activity at 0.0025 µM (Human keratinocytes; Homo sapiens, Keratinocyte, 24 h, Table 1A, 2.5 × 10^-9 M, 24 hours, read-out: Thymidine incorporation (% control)): 122%
- activity at 0.0025 µM (Human keratinocytes; Homo sapiens, Keratinocyte, 24 h, Table 2A, 2.5 × 10^-9 M RA or ROH, with 10^-8 M LADEA and/or 10^-9 M Bifonazole where named, 24 hours, read-out: Thymidine incorporation (% control)): 127%
- activity at 0.25 µM (Human keratinocytes; Homo sapiens, Keratinocyte, 24 h, Table 3A, RA at 2.5 × 10^7 M [sic], read-out: Thymidine incorporation (% control)): 130%
- activation at 0.0025 µM (Human keratinocytes; Homo sapiens, Keratinocyte, read-out: increase in keratinocyte thymidine incorporation / proliferation over the ethanol control, Example 2, or 2.5×10^-9 M retinol+10^-8 M linoleamide-DEA+10^-9 M bifonazole): 27%
- activation at 0.25 µM (Human keratinocytes; Homo sapiens, Keratinocyte, read-out: increase in keratinocyte thymidine incorporation / proliferation over the ethanol control, Example 3, 2.5×10^-7 M RA, or 2.5×10^-8 M retinol+10^-8 M linoleamide-DEA+10^-9 M climbazole): 30%
- activation at 0.0025 µM (Human keratinocytes; Homo sapiens, Keratinocyte, read-out: increase in keratinocyte thymidine incorporation / proliferation over the ethanol control, Example 4, or 2.5×10^-9 M retinol+10^-8 M linoleamide-MEA+10^-8 M clotrimazole): 28%
- mean Thymidine incorp./μg protein ± s.d (Human keratinocytes; Table 1A, 2.5 × 10^-7 M, 24 hours, n = 3): 2475 ± 116 DPM/μg protein
- mean Thymidine incorp./μg protein ± s.d (Human keratinocytes; Table 1A, 2.5 × 10^-8 M, 24 hours, n = 3): 2686 ± 72 DPM/μg protein
- mean Thymidine incorp./μg protein ± s.d (Human keratinocytes; Table 1A, 2.5 × 10^-9 M, 24 hours, n = 3): 2556 ± 80 DPM/μg protein
- mean Thymidine incorp. μg protein ± s.d (Human keratinocytes; Table 2A, 2.5 × 10^-9 M RA or ROH, with 10^-8 M LADEA and/or 10^-9 M Bifonazole where named, 24 hours, n = 3): 5569 ± 248 DPM/μg protein
- mean Thymidine incorp/μg protein ± s.d (Human keratinocytes; Table 3A, RA at 2.5 × 10^7 M [sic], n = 3): 4845 ± 95 DPM/μg protein
- effect on transglutaminase level / keratinocyte differentiation (in words) (TGase I; Example 1, 2.5×10^-7 M, 2.5×10^-8 M and 2.5×10^-9 M): decreased keratinocyte differentiation over both the ethanol control and each of the retinol treatments; also recorded: dose dependent
- effect on keratinocyte TG1 level / differentiation (in words) (TGase I; Example 2, 2.5×10^-8 M RA or retinol, 10^-8 M LAMEA, 10^-8 M bifonazole, 72 hour): very effective at repressing keratinocyte TG1 levels
- effect on keratinocyte TG1 level / differentiation (in words) (TGase I; Example 3, 2.5×10^-7 M RA, 2.5×10^-9 M retinol with 10^-8 M LADEA and/or climbazole, 72 hour): very effective at repressing keratinocyte TG1 levels
- effect on keratinocyte differentiation (in words) (TGase I; [1]): decreased keratinocyte differentiation
- TGase/DNA (% Control) (TGase I; Table 1B, 2.5 × 10^-7 M, 72 hours, 0.25 µM): 7%
- Mean TGase/DNA X 10^-4 ± S.D. (TGase I; Table 1B, 2.5 × 10^-7 M, 72 hours): 0.16 ± 0.11 X 10^-4
- TGase/DNA (% Control) (TGase I; Table 1B, 2.5 × 10^-8 M, 72 hours, 0.025 µM): 55%
- Mean TGase/DNA X 10^-4 ± S.D. (TGase I; Table 1B, 2.5 × 10^-8 M, 72 hours): 1.34 ± 0.40 X 10^-4
- TGase/DNA (% Control) (TGase I; Table 1B, 2.5 × 10^-9 M, 72 hours, 0.0025 µM): 77%
- Mean TGase/DNA X 10^-4 ± S.D. (TGase I; Table 1B, 2.5 × 10^-9 M, 72 hours): 1.87 ± 0.49 X 10^-4
- TGase/DNA (% Control) (TGase I; Table 2B and Example 2B text, 2.5×10^-8 M RA or retinol, 10^-8 M LAMEA, 10^-8 M bifonazole where named, 72 hour): 13%
- mean TGase/DNA × 10^-4 ± s.d (TGase I; Table 2B, 2.5 × 10^8 M [sic] RA or ROH, 10^8 M LA-MEA, 10^8 M Bifonazole where named, 72 hour, n = 6): 0.017 ± 0.010 × 10^-4
- TGase/DNA (% Control) (TGase I; Table 3B and Example 3B, 2.5×10^-9 M RA or ROH, with 10^-8 M LADEA and/or 10^-8 M climbazole where named, 72 hour): 55%
- TGase/DNA (% Control) (TGase I; Table 3B and Example 3B, RA at 2.5×10^-7 M (table: 2.5 × 10^7 M), 72 hour, 0.25 µM): 29%
- mean TGase/DNA × 10^4 ± s.d (TGase I; 2.5 × 10^9 M [sic] RA or ROH, with 10^8 M LA-DEA and/or 10^8 M Climbazole where named, 72 hour, n = 6): 0.84 ± 0.59 × 10^4
- mean TGase/DNA × 10^4 ± s.d (TGase I; RA at 2.5 × 10^7 M [sic], 72 hour, n = 6): 0.44 ± 0.71 × 10^4
